Assay results published in patent publication US8420644B2, “Pharmaceutical composition intended for the prevention or for the treatment of cerebral oedemas” (Biocodex, priority 2005, dated 2013).
Like-named read-outs stand apart in the source and are kept apart here.

Key:
[1] = system: ambulatory activity disrupted by triethyltin (TET); conditions: for Ambulatory activities: no TET
[2] = type: in vivo, rat
[3] = system: cerebral oedema induced by triethyltin (TET); conditions: rat, in vivo
[4] = system: cerebral edema induced triethyltin (TET) chloride; conditions: administered during the intoxication, measured after 5 days (Linee et al., 1984); cited from earlier work
[5] = moclobemide 2 × 50 mg/kg/day + TET 3 mg/kg/day, day 4
[6] = moclobemide 2 × 50 mg/kg/day + TET 3 mg/kg/day, day −3, before any treatment
[7] = moclobemide 2 × 50 mg/kg/day, TET 0, day 4
[8] = moclobemide 2 × 50 mg/kg/day, TET 0, day −3, before any treatment
[9] = moclobemide 2×100 mg/kg/day + TET
[10] = moclobemide 2 × 100 mg/kg/day + TET 3 mg/kg/day, day 4
[11] = moclobemide 2 × 100 mg/kg/day + TET 3 mg/kg/day, day −3, before any treatment

## moclobemide
[1]; moclobemide 2×50 mg/kg/day + TET
  Effect of TET on the ambulatory activities: does not suppress the effect of TET
[1]; [5]
  Horizontal ambulatory activity (means ± esm): 474 ± 70 arbitrary unit
  Total ambulatory activity (means ± esm): 844 ± 88 arbitrary unit
[1]; [6]
  Horizontal ambulatory activity (means ± esm): 2319 ± 248 arbitrary unit
  Total ambulatory activity (means ± esm): 3001 ± 314 arbitrary unit
  Vertical ambulatory activity (means ± esm): 279 ± 37 arbitrary unit
[1]; moclobemide 2×50 mg/kg/day for 5 days
  Ambulatory activities: does not lead to any significant effect on the ambulatory activities
[1]; [7]
  Horizontal ambulatory activity (means ± esm): 1483 ± 163 arbitrary unit
  Total ambulatory activity (means ± esm): 2000 ± 224 arbitrary unit
[1]; [8]
  Horizontal ambulatory activity (means ± esm): 2754 ± 415 arbitrary unit
  Total ambulatory activity (means ± esm): 3840 ± 323 arbitrary unit
[1]; [9]
  Effect of TET on the ambulatory activities: does not suppress the effect of TET
[1]; [10]
  Horizontal ambulatory activity (means ± esm): 497 ± 139 arbitrary unit
[1]; [11]
  Horizontal ambulatory activity (means ± esm): 2549 ± 221 arbitrary unit
  Total ambulatory activity (means ± esm): 3332 ± 235 arbitrary unit
  Vertical ambulatory activity (means ± esm): 279 ± 27 arbitrary unit
[1]; moclobemide 2×100 mg/kg/day, day 4
  Ambulatory activities: significantly decreases the ambulatory activities at day 4
[2]; moclobemide 2 × 50 mg/kg/day + TET 3 mg/kg/day, day 0
  Body weight (grammes ± esm): 245 ± 3 grammes
[2]; moclobemide 2 × 50 mg/kg/day + TET 3 mg/kg/day, day 1
  Body weight (grammes ± esm): 246 ± 3 grammes
[2]; moclobemide 2 × 50 mg/kg/day + TET 3 mg/kg/day, day 2
  Body weight (grammes ± esm): 249 ± 3 grammes
[2]; moclobemide 2 × 50 mg/kg/day + TET 3 mg/kg/day, day 3
  Body weight (grammes ± esm): 253 ± 4 grammes
[2]; moclobemide 2 × 50 mg/kg/day + TET 3 mg/kg/day, day −3
  Body weight (grammes ± esm): 216 ± 3 grammes
[2]; [9]
  Drop in weight between day 3 and day 4 induced by the TET: prevents the drop in weight induced by the TET
[2]; moclobemide 2 × 100 mg/kg/day + TET 3 mg/kg/day, day 0
  Body weight (grammes ± esm): 243 ± 4 grammes
[2]; moclobemide 2 × 100 mg/kg/day + TET 3 mg/kg/day, day 2
  Body weight (grammes ± esm): 244 ± 4 grammes
[2]; moclobemide 2 × 100 mg/kg/day + TET 3 mg/kg/day, day 3
  Body weight (grammes ± esm): 244 ± 4 grammes
[2]; [10]
  Body weight (grammes ± esm): 241 ± 5 grammes
[2]; moclobemide 2 × 100 mg/kg/day + TET 3 mg/kg/day, day −3
  Body weight (grammes ± esm): 203 ± 5 grammes
[3]; 50 mg/kg/day
  Variation in percentage: −0.01%
[3]; 100 mg/kg/day
  Variation in percentage: −0.14%

## (−)eburnamonine
[4]
  Activity in the preventive protocol of intoxication with tin: active

## dihydroergotoxin
[4]
  Activity in the preventive protocol of intoxication with tin: active

## CC[C@]12CCCN3CCc4c(n(c5ccccc45)[C@@](O)(C(=O)OC)C1)[C@@H]32 [vincamine]
[4]
  Activity in the preventive protocol of intoxication with tin: active
